Test results published in US4709012A, “Novel inhibitor peptides” (Washington University, priority 1986, dated 1987).
Where no end group is shown, it is not given here.

Columns and labels:
Assay in all cases: Octapeptide substrate specificity / kinetic characterization with partially purified yeast myristoylating enzyme (Table II)
[1] = target: T1, myristoylating enzyme from yeast (N-myristoylglycylpeptide synthetase) (Saccharomyces cerevisiae, UniProt P14743); type: biochemical; details: for Ki: inhibition of myristoylation of the substrate Gly-Asn-Ala-Ala-Ala-Ala-Arg-Arg
T1 construct: partially purified from a crude homogenate of the cultured yeast cells by fractionation with 51-70% (NH4)2 SO4; endogenous in cells; host or cells: S. cerevisiae strain JR153; ammonium sulfate cut, DEAE-Sepharose CL-6B, CoA-agarose
T1 sequence (P14743 1-455): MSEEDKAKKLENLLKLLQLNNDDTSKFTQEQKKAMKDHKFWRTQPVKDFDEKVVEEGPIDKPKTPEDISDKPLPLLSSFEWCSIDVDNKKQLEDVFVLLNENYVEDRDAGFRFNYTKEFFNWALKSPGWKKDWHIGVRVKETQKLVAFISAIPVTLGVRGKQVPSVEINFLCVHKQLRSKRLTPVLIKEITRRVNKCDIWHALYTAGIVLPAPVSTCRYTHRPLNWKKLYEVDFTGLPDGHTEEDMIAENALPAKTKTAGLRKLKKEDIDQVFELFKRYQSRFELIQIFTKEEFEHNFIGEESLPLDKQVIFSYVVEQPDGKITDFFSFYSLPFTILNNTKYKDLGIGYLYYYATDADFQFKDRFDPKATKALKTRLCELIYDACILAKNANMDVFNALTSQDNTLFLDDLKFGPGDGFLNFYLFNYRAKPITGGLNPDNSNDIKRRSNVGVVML
Protocol: (§1) The synthetic octapeptide Gly-Asn-Ala-Ala-Ala-Ala-Arg-Arg was initially used to identify a unique enzymatic activity which transfers myristic acid to the amino terminal glycine of this and other peptides. […] The enzyme activity was determined in an in vitro assay which measures the transfer of [^3 H]-myristic acid to the acceptor peptide. The transfer reaction is dependent on adenosine triphosphate (ATP) and coenzyme A (CoA). The enzymatic product was then identified by high performance liquid chromatography (HPLC) by co-elution with a chemically synthesized myristoyl peptide standard. […] Both contained M-myristoyl glycine.
(§2) [^3 H]Fatty acyl CoA was synthesized enzymatically and added to the incubation as follows. The acyl CoA synthetase reaction consisted of (per one assay tube): 0.5 μCi of [^3 H]myristic acid; 25 μl of 2X assay buffer (20 mM Tris, pH 7.4, 2 mM dithiothreitol, 10 mM MgCl2, 0.2 mM EGTA); 5 μl of 50 mM ATP in distilled water, adjusted to pH 7.0 with NaOH; […] in distilled water; 15 μl of lmU/μl of Pseudomonas acyl CoA synthetase (Sigma) in 50 mM N-2-hydroxyethylpiperazine-N'-2-ethane sulfonic acid, pH 7.3; 2.5 μl of distilled water. The reaction was allowed to proceed for 20 minutes at 30° C. Typically, 40% to 50% of the [^3 H]fatty acid was converted to its CoA ester by this procedure as measured by determining the radioactivity remaining in the reaction after acidification with 6 N HCl to pH 2.0 and extraction 6 times with 5 volumes of heptane, a modification of the method of Hosaka et al., Meth. Enzymol. 71, 325-333 (1981). Fifty microliters of this reaction were added to tubes containing 40 μl of assay extraction buffer (see above) and 10 μl of 1 mM GlyAsnAlaAlaAlaAlaArgArg. The assay was initiated by the addition of 10 μl of yeast cell extract (typically 50 μg of protein) per tube, followed by incubation at 30° C. for 10 min. The assay was terminated by the addition of 110 μl of methanol and 10 μl of 100% trichloracetic acid (w/v) per tube, followed by cooling ten minutes on ice. Precipitated protein was removed by centrifugation at 8000 x g for 3 minutes in a tabletop Eppendorf centrifuge. (Under these conditions, 95% of synthetic [^3 H]myristoylpeptide or [^3 H]palmitoylpeptide remined soluble when added to an assay mixture.) Fifty microliters of the supernatant were mixed with 75 μl methanol and 75 μl of HPLC buffer A, and analyzed by reverse phase HPLC on a 3.9 mm by 30 cm Waters μ-Bondapak C18 column using the same HPLC buffers described above, starting at 35% acetonitrile and eluting with a 1% per minute acetonitrile gradient. One minute fractions were collected and the radioactivity in each fraction determined by liquid scintillation counting. [^3 H]Myristoyl-GlyAsnAlaAlaAlaAlaArgArg eluted at 24 minutes, while [^3 H]palmitoyl-GlyAsnAlaAlaAlaAlaArgArg eluted at 30 minutes.
Several octapeptides illustrating the present invention were synthesized by the solid phase Merrifield procedure essentially as described in Example 1 and then tested for activity as substrates or inhibitors for the myristoylating enzyme from yeast (S. cerevisiae strain JR153). The octapeptide substrate specificity of the enzyme was tested under the assay conditions described in Example 2 but using 1 μCi of [^3 H]- myristic acid per assay tube. The yeast enzyme used in this example was partially purified from a crude homogenate of the cultured yeast cells by fractionation with 51-70% (NH4)2 SO4 followed by ion exchange column chromatography with DEAE-Sepharose® CL-6B (Pharmacia) and affinity chromatography with CoA-agarose affinity matrix (Pharmacia).

[2] = substrate: CC(C)C[C@H](NC(=O)CN)C(=O)N[C@@H](C)C(=O)N[C@@H](C)C(=O)N[C@@H](C)C(=O)N[C@@H](C)C(=O)N[C@@H](CCCNC(=N)N)C(=O)N[C@@H](CCCNC(=N)N)C(N)=O; type: biochemical, Saccharomyces cerevisiae; details: other: peptide as acyl acceptor, 1 μCi [3H]-myristic acid per tube, 30.0 °C
Protocol: as §1
as §2, with “The reaction was allowed to proceed for 20 minutes at 30° C.” left out, “Enzymol. 71, 325-333 (1981). Fifty microliters of this reaction were added to tubes containing 40 μl of assay extraction buffer (see above) and 10 μl of 1 mM GlyAsnAlaAlaAlaAlaArgArg. The assay was initiated by the addition of 10 μl of yeast cell extract (typically 50 μg of protein) per tube, followed by incubation at 30° C. for 10 min. The assay was terminated by the addition of 110 μl of methanol and 10 μl of 100% trichloracetic acid (w/v) per tube, followed by cooling ten minutes on ice. Precipitated protein was removed by centrifugation at 8000 x g for 3 minutes in a tabletop Eppendorf centrifuge.” left out, “[^3 H]Myristoyl-GlyAsnAlaAlaAlaAlaArgArg eluted at 24 minutes, while [^3 H]palmitoyl-GlyAsnAlaAlaAlaAlaArgArg eluted at 30 minutes.” left out

[3] = substrate: CC(C)[C@H](NC(=O)CN)C(=O)N[C@@H](C)C(=O)N[C@@H](C)C(=O)N[C@@H](C)C(=O)N[C@@H](C)C(=O)N[C@@H](CCCNC(=N)N)C(=O)N[C@@H](CCCNC(=N)N)C(N)=O; type: biochemical, Saccharomyces cerevisiae; details: other: peptide as acyl acceptor, 1 μCi [3H]-myristic acid per tube, 30.0 °C
Protocol: as §1
as §2, with “The reaction was allowed to proceed for 20 minutes at 30° C.” left out, “Enzymol. 71, 325-333 (1981). Fifty microliters of this reaction were added to tubes containing 40 μl of assay extraction buffer (see above) and 10 μl of 1 mM GlyAsnAlaAlaAlaAlaArgArg. The assay was initiated by the addition of 10 μl of yeast cell extract (typically 50 μg of protein) per tube, followed by incubation at 30° C. for 10 min. The assay was terminated by the addition of 110 μl of methanol and 10 μl of 100% trichloracetic acid (w/v) per tube, followed by cooling ten minutes on ice. Precipitated protein was removed by centrifugation at 8000 x g for 3 minutes in a tabletop Eppendorf centrifuge.” left out, “[^3 H]Myristoyl-GlyAsnAlaAlaAlaAlaArgArg eluted at 24 minutes, while [^3 H]palmitoyl-GlyAsnAlaAlaAlaAlaArgArg eluted at 30 minutes.” left out

[4] = substrate: C[C@H](NC(=O)[C@H](C)NC(=O)[C@H](C)NC(=O)[C@H](CC(N)=O)NC(=O)CN)C(=O)N[C@@H](C)C(=O)N[C@@H](CCCNC(=N)N)C(=O)N[C@@H](CCCNC(=N)N)C(N)=O; type: biochemical, Saccharomyces cerevisiae; details: other: peptide as acyl acceptor, 1 μCi [3H]-myristic acid per tube, 30.0 °C
Protocol: as §1
as §2, with “The reaction was allowed to proceed for 20 minutes at 30° C.” left out, “Enzymol. 71, 325-333 (1981). Fifty microliters of this reaction were added to tubes containing 40 μl of assay extraction buffer (see above) and 10 μl of 1 mM GlyAsnAlaAlaAlaAlaArgArg. The assay was initiated by the addition of 10 μl of yeast cell extract (typically 50 μg of protein) per tube, followed by incubation at 30° C. for 10 min. The assay was terminated by the addition of 110 μl of methanol and 10 μl of 100% trichloracetic acid (w/v) per tube, followed by cooling ten minutes on ice. Precipitated protein was removed by centrifugation at 8000 x g for 3 minutes in a tabletop Eppendorf centrifuge.” left out, “[^3 H]Myristoyl-GlyAsnAlaAlaAlaAlaArgArg eluted at 24 minutes, while [^3 H]palmitoyl-GlyAsnAlaAlaAlaAlaArgArg eluted at 30 minutes.” left out

[5] = partially purified yeast enzyme

## GFAAAARR-NH2 [Gly--Phe--Ala--Ala--Ala--Ala--Arg--Arg, Gly-Phe-Ala-Ala-Ala-Ala-Arg-Argp]
[1]; [5]
  Ki: 150 µM

## GLAAAARR-NH2 [Gly--Leu--Ala--Ala--Ala--Ala--Arg--Arg]
[1]; [5]
  Ki: 60 µM

## GNAAAARR-NH2 [Gly--Asn--Ala--Ala--Ala--Ala--Arg--Arg, Gly-Asn-Ala-Ala-Ala-Ala-Arg-Arg, reference compound]
[1]; absolute Vmax, footnote to Table II
  Vmax: 2840 pmol myristoyl peptide formed
[1]; relative to Gly-Asn-Ala-Ala-Ala-Ala-Arg-Arg = 100, partially purified yeast enzyme
  Relative Vmax (%): 100%

## GVAAAARR-NH2 [Gly--Val--Ala--Ala--Ala--Ala--Arg--Arg]
[1]; [5]
  Ki: 60 µM

## GYAAAARR-NH2 [Gly--Tyr--Ala--Ala--Ala--Ala--Arg--Arg, Gly-Tyr-Ala-Ala-Ala-Ala-Arg-Arg]
[1]; [5]
  Ki: 150 µM

B1: myristoylating enzyme from yeast (N-myristoylglycylpeptide synthetase) (Saccharomyces cerevisiae S288C) (protein)
chain: T1 sequence (P14743 1-455)
notes: partially purified from a crude homogenate of the cultured yeast cells by fractionation with 51-70% (NH4)2 SO4; endogenous in cells; host or cells: S. cerevisiae strain JR153; ammonium sulfate cut, DEAE-Sepharose CL-6B, CoA-agarose
[2]
  Km: 300 µM
[3]
  Km: 700 µM
[4]
  Km: 60 µM
